Data: US20140140946A1, “SKIN PREPARATION COMPOSITION FOR EXTERNAL USE WITH EXCELLENT ANTIBACTERIAL AND ANTIFUNGAL EFFECTS” (priority 2010, published 2014)

Key:
Type in all cases: cell-based
[1] = system: Pityrosporum ovale (Malassezia furfur); experiment: Growth of Pityrosporum ovale in Leeming & Notman medium; conditions: 32° C. for 3 days; FIG. 4; trisodium phosphate at pH 8.0
Method: Each of citric acid (pH 4.0), trisodium phosphate (TSP, pH 8.4) and citric acid+trisodium phosphate (pH 5.0) was added to Leeming & Notman medium of 1 L containing glucose 10 g, peptone 10 g, bile salts 8 g, yeast extract 2 g, glycerol monostearate 0.5 g, glycerol 10 ml and Tween 80 (1.5%) 15 ml, and 0.1 ml of Pityrosporum ovale (Malassezia furfur), which is a kind of fungi known for causing atopy, was injected to each group.

[2] = system: Peptostreptococcus asaccharolyticus (KTCC 3321); experiment: Growth of Peptostreptococcus asaccharolyticus in Wilkins Chalgren Anaerobe Broth; conditions: citric acid 0.8 g, trisodium phosphate 1.85 g, pH 6.0
Source text: (§1) The following control group is a broth not injected with the bacteria.

[3] = system: Streptococcus mitis (KCTC 3556); experiment: Growth of Streptococcus mitis in BHI broth; conditions: citric acid 0.4 g, trisodium phosphate 0.64 g, pH 6.0
Source text: as §1

[4] = system: Streptococcus mutans (KCTC 3065); experiment: Growth of Streptococcus mutans in BHI broth; conditions: citric acid 0.4 g, trisodium phosphate 0.64 g, pH 6.0
Source text: as §1

[5] = system: S. salivarius (KCTC 3960); experiment: Growth of S. salivarius in BHI broth; conditions: citric acid 0.4 g, trisodium phosphate 0.64 g, pH 6.0
Source text: as §1

Streptococcus sanguinis = experiment: Growth of Streptococcus sanguinis in BHI broth; conditions: citric acid 0.4 g, trisodium phosphate 0.64 g, pH 6.0
Source text: as §1

In the case of O=P([O-])([O-])[O-].[Na+].[Na+].[Na+] [trisodium phosphate], the “growth of P. ovale” value [1] is reported as “significantly suppressed”.
HCl [Broth D] was tested, and the “Absorbance (OD)” value ([2]; 4 hrs) was 0.005 OD, the “Absorbance (OD)” value ([2]; 8 hrs) was 0.010 OD and the “Absorbance (OD)” value ([2]; 12 hrs) was 0.002 OD. The “Absorbance (OD)” value ([2]; 16 hrs) was 0.008 OD, the “Growth observed (in words)” value ([2]; 20 hrs) was “No change” and the “Growth observed (in words)” value ([2]; 24 hrs) was “No change”. For the same molecule, the “Growth observed (in words)” value ([2]; 56 hrs) was “Full growth”, the “Absorbance (OD)” value ([3]; 4 hrs) was 0.054 OD and the “Absorbance (OD)” value ([3]; 6 hrs) was 0.104 OD. The “Absorbance (OD)” value ([3]; 8 hrs) was 0.205 OD, the “Absorbance (OD)” value ([3]; 10 hrs) was 0.244 OD and the “Absorbance (OD)” value ([3]; 12 hrs) was 0.218 OD. For the same molecule, the “Absorbance (OD)” value ([3]; 14 hrs) was 0.127 OD, the “Absorbance (OD)” value ([3]; 16 hrs) was 0.089 OD and the “Absorbance (OD)” value ([3]; 18 hrs) was 0.092 OD. The “Absorbance (OD)” value ([4]; 4 hrs) was 0.032 OD, the “Absorbance (OD)” value ([4]; 6 hrs) was 0.092 OD and the “Absorbance (OD)” value ([4]; 8 hrs) was 0.141 OD. For the same molecule, the “Absorbance (OD)” value ([4]; 10 hrs) was 0.200 OD, the “Absorbance (OD)” value ([4]; 12 hrs) was 0.244 OD and the “Absorbance (OD)” value ([4]; 14 hrs) was 0.212 OD. For the same molecule, the “Absorbance (OD)” value ([4]; 16 hrs) was 0.235 OD, the “Absorbance (OD)” value ([4]; 18 hrs) was 0.210 OD and the “Absorbance (OD)” value ([5]; 4 hrs) was 0.011 OD. The “Absorbance (OD)” value ([5]; 6 hrs) was 0.068 OD, the “Absorbance (OD)” value ([5]; 8 hrs) was 0.167 OD and the “Absorbance (OD)” value ([5]; 10 hrs) was 0.192 OD. The “Absorbance (OD)” value ([5]; 12 hrs) was 0.224 OD, the “Absorbance (OD)” value ([5]; 14 hrs) was 0.234 OD and the “Absorbance (OD)” value ([5]; 16 hrs) was 0.319 OD. For the same molecule, the “Absorbance (OD)” value ([5]; 18 hrs) was 0.224 OD, the “Absorbance (OD)” value (Streptococcus sanguinis; 4 hrs) was 0.018 OD and the “Absorbance (OD)” value (Streptococcus sanguinis; 6 hrs) was 0.039 OD. For the same molecule, the “Absorbance (OD)” value (Streptococcus sanguinis; 8 hrs) was 0.118 OD, the “Absorbance (OD)” value (Streptococcus sanguinis; 10 hrs) was 0.127 OD and the “Absorbance (OD)” value (Streptococcus sanguinis; 12 hrs) was 0.283 OD. The “Absorbance (OD)” value (Streptococcus sanguinis; 14 hrs) was 0.303 OD, the “Absorbance (OD)” value (Streptococcus sanguinis; 16 hrs) was 0.203 OD and the “Absorbance (OD)” value (Streptococcus sanguinis; 18 hrs) was 0.199 OD.
